In patent US20120165403A1, “METHODS OF INHIBITING THE ACTIVITY OF HSP90 AND/OR ARYL HYDROCARBON RECEPTOR” (UNIVERSITY OF ROCHESTER, priority 2004, published 2012):

Legend:
[1] = system: AhR; assay: AhR protein levels by western blotting in Hepa cells; type: cell-based, mouse; details: over 12 hours
Protocol: Hepa cells were plated onto 6-well plates at a density of 5×10^5 cells/well and incubated overnight at 37° C. […] Cells were lysed (0.2% Triton, 5 mM EDTA in PBS) and total protein quantified using the Coomassie Plus Protein Assay Reagent (Pierce, Rockford, Ill.). Protein (30 μg) was separated by SDS-PAGE (7.5% acrylamide resolving gel) and transferred to PVDF membrane (Millipore, Bedford, Mass.). Membranes were probed with antibodies recognizing CYP1A1 (Xenotech, Lenexa, Kans.), AhR (Biomol, Plymouth Meeting, Pa.) and actin (Sigma). The secondary IgG antibodies were coupled to horseradish peroxidase (Jackson Immuno Research, West Grove, Pa.). Both primary and secondary antibodies were used at a dilution of 1:5000 in TBST (50 mM Tris, 300 mM NaCl, 0.5% Tween 20, pH 7.5) containing 5% milk. Proteins were visualized by chemiluminescence (KPL, Gaithersburg, Md.).

[2] = target: T1, purified human hsp90 (Homo sapiens, UniProt P07900); assay: Affinity chromatography on EGCG-conjugated Sepharose, purified hsp90; type: binding; details: purified hsp90 alone
T1 construct: purchased Stressgen
Protocol: (§1) EGCG was conjugated to cyanogen bromide (CNBr)-activated Sepharose (Sigma). EGCG (2.5 mg) was dissolved in 5004 coupling buffer (0.1M NaHCO3, 0.5M NaCl, pH 6.0). CNBr-activated Sepharose was swelled and washed in 1 mM HCl on a sintered glass filter followed by a wash with coupling buffer. CNBr-activated Sepharose beads were added to the EGCG in coupling buffer at a final concentration of 5 mg EGCG/ml of wet gel. The coupling solution containing EGCG and Sepharose was mixed end-over end at 4° C. overnight. Remaining active groups were blocked for 2 h at room temperature in Tris-HCl (0.1M, pH 8). EGCG-conjugated Sepharose was washed with three cycles of alternating pH wash buffers (Buffer 1: 0.1M acetate, 0.5M NaCl, pH4.0; Buffer 2: 0.1M Tris-HCl, 0.5M NaCl, pH 8.0). EGCG-conjugated beads were then equilibrated in binding buffer (0.05M Tris-HCl, 0.15M sodium chloride, pH 7.5). The control unconjugated CNBr-activated Sepharose beads were prepared as above in the absence of EGCG.
For affinity chromatography using histidine-purified XAP2 and purified human hsp90 (Stressgen), 30 μl of unconjugated or EGCG-conjugated Sepharose were incubated for 1 h at room temperature with either 1:4 diluted ^35S-XAP2 in RRL, 30 μl of histidine purified ^35S-XAP2, 0.6 μg of purified hsp90, or 20 μl of histidine purified ^35S-XAP2 in the presence of 0.6 μg of purified hsp90. […]

[3] = system: hsp90; assay: Affinity chromatography on EGCG-conjugated Sepharose, hsp90 inherent to RRL; type: binding, rabbit; details: immunoblotting
Protocol: as §1, with “EGCG-conjugated beads were then equilibrated in binding buffer (0.05M Tris-HCl, 0.15M sodium chloride, pH 7.5). The control unconjugated CNBr-activated Sepharose beads were prepared as above in the absence of EGCG.” left out
Approximately 25 μL of 1:4 diluted RRL containing ^35S-labeled in vitro transcribed protein was incubated with 40 μL of either unconjugated or EGCG-conjugated Sepharose beads in binding buffer (50% slurry). […] Protein was transferred to PVDF membrane (Millipore, Bedford, Mass.). ^35S-labeled AhR, ARNT, p23, XAP2, and hsp90 truncated and point mutants were detected by Phosphoimaging. Hsp90 inherent to RRL was detected by immunoblotting using an anti-hsp90 monoclonal antibody (Stressgen Victoria, BC Canada) followed by secondary antibody coupled to horseradish peroxidase (Jackson Immuno Research, West Grove, Pa.). […]

[4] = system: TCDD induced luciferase activity (human CYP1A1 promoter); assay: Luciferase reporter gene assay in HepG2.101L cells; type: cell-based
Protocol: The human hepatoma cell line HepG2 were stably transfected with a luciferase expression vector downstream from exon one, a portion of intron one, and 1612 base pairs of the 5′-flanking sequence of the human CYP1A gene to generate the cell line HepG2.101L, as previously described (Postlind et al., Toxicol. Appl. Pharmacol 118:255-262 (1993), which is hereby incorporated by reference in its entirety). Cells were grown in Dulbecco's modified Eagle's medium (Mediatech Herndon, Va.) supplemented with 10% fetal bovine serum and Gentamicin (DMEM) at 37° C. in a humid atmosphere with 5% CO2. Treatment and reporter gene activity were assessed as previously described (Palermo et al., Chem. Res. Toxicol. 16:865-872 (2003), which is hereby incorporated by reference in its entirety) with the following changes: HepG2.101L cells were added to hydrated Cytodex™ microcarrier beads (Sigma) to achieve 1.5×10^6 cells per 30 mg beads per 10 ml DMEM. Luminescence was detected using the Packard Lumicount™ (Meriden, Conn.).

## O=C(O[C@@H]1Cc2c(O)cc(O)cc2O[C@@H]1c1cc(O)c(O)c(O)c1)c1cc(O)c(O)c(O)c1 [EGCG, epigallocatechin gallate]
[1]; 200 μM EGCG with 150 pM TCDD
  effect on the TCDD-induced decrease of AhR levels: not exacerbated or prevented
[1]; EGCG 200 μM or TCDD 150 pM
  AhR protein levels, treatment alone: not capable of inducing AhR degradation
[2]
  binding of purified hsp90 to EGCG-Sepharose: eluted specifically from EGCG-Sepharose
[3]
  binding of hsp90 to EGCG-Sepharose: eluted from EGCG-Sepharose
[4]; 500 pM TCDD, 4 h, read-out: IC50, inhibition of TCDD induced luciferase activity
  IC50: ~100 µM
[4]; EGCG alone
  induction of luciferase activity, treatment alone: did not induce luciferase activity significantly over background
